Patent US20090264401A1, “SUBSTITUTED PYRIMIDIN-5-CARBOXAMIDES 281” (AstraZeneca AB, priority 2008, published 2009)

Molecular target: T1, human 11βHSD1 enzyme (Homo sapiens, UniProt P28845)
T1 construct: baculovirus expressed N terminal 6-His tagged full length human 11βHSD1 enzyme; 6-His (N); made in house
Experiment: 11βHSD1 cortisone to cortisol conversion, competitive HTRF assay
Format: biochemical
Settings: human 11-βHSD; test concentration of 30 μM of compound
Method in brief: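 Enzyme was baculovirus-expressed, N-terminal 6-His-tagged full-length human 11βHSD1, purified on a copper chelate column. Compounds were added in buffer containing 1% DMSO at 10-fold final concentration.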

T1 sequence (P28845 whole entry): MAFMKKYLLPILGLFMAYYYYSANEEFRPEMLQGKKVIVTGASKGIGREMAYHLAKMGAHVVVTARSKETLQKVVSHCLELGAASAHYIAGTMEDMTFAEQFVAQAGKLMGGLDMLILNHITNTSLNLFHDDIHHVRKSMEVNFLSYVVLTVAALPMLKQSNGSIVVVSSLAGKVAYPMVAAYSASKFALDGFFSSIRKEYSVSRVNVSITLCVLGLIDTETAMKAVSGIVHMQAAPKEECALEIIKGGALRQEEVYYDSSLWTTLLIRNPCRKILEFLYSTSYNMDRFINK

Structure (SMILES)	inhibition at 30 µM [%]
CNc1ncc(C(=O)N[C@H]2C3CC4CC2C[C@@](O)(C4)C3)c([C@H]2CCCO2)n1 [Example 167, N-[(2r,5s)-5-hydroxyadamantan-2-yl]-2-methylamino-4-[(2R)-oxolan-2-yl]pyrimidine-5-carboxamide]	101
O=C(N[C@H]1C2CC3CC1C[C@@](O)(C3)C2)c1cnc(NC2CC2)nc1[C@H]1CCCO1 [Example 170, 2-(cyclopropylamino)-N-[(2r,5s)-5-hydroxyadamantan-2-yl]-4-[(2R)-oxolan-2-yl]pyrimidine-5-carboxamide]	94.4
CC(C)Nc1ncc(C(=O)N[C@H]2C3CC4CC2C[C@@](O)(C4)C3)c([C@H]2CCCO2)n1 [Example 171, N-[(2r,5s)-5-hydroxyadamantan-2-yl]-4-[(2R)-oxolan-2-yl]-2-(propan-2-ylamino)pyrimidine-5-carboxamide]	103
C[C@@H]1CN(c2ncc(C(=O)N[C@H]3C4CC5CC3C[C@@](O)(C5)C4)c([C@H]3CCCO3)n2)C[C@H](C)N1 [Example 172, 2-[(3S,5R)-3,5-dimethylpiperazin-1-yl]-N-[(2r,5s)-5-hydroxyadamantan-2-yl]-4-[(2R)-oxolan-2-yl]pyrimidine-5-carboxamide]	97.2
O=C(N[C@H]1C2CC3CC1C[C@@](O)(C3)C2)c1cnc(NC2COC2)nc1[C@H]1CCCO1 [Example 173, N-[(2r,5s)-5-hydroxyadamantan-2-yl]-2-(oxetan-3-ylamino)-4-[(2R)-oxolan-2-yl]pyrimidine-5-carboxamide]	101
O=C(N[C@H]1C2CC3CC1C[C@@](O)(C3)C2)c1cnc(NC2CCOCC2)nc1[C@H]1CCCO1 [Example 174, N-[(2r,5s)-5-hydroxyadamantan-2-yl]-2-(oxan-4-ylamino)-4-[(2R)-oxolan-2-yl]pyrimidine-5-carboxamide]	95
O=C(N[C@H]1C2CC3CC1C[C@@](O)(C3)C2)c1cnc(NC2CCC2)nc1[C@H]1CCCO1 [Example 175, 2-(cyclobutaylamino)-N-[(2r,5s)-5-hydroxyadamantan-2-yl]-4-[(2R)-oxolan-2-yl]pyrimidine-5-carboxamide]	103
CC(C)Oc1ncc(C(=O)N[C@H]2C3CC4CC2C[C@@](O)(C4)C3)c([C@H]2CCCO2)n1 [Example 176]	97.9
CSc1ncc(C(=O)N[C@H]2C3CC4CC2C[C@@](O)(C4)C3)c([C@@H]2CCCO2)n1 [Example 177, N-[(2r,5s)-5-hydroxyadamantan-2-yl]-2-methylsulfanyl-4-[(2S)-oxolan-2-yl]pyrimidine-5-carboxamide]	95.8
CNc1ncc(C(=O)N[C@H]2C3CC4CC2C[C@@](O)(C4)C3)c([C@@H]2CCCO2)n1 [Example 178, N-[(2r,5s)-5-hydroxyadamantan-2-yl]-2-methylamino-4-[(2S)-oxolan-2-yl]pyrimidine-5-carboxamide]	95.3
CC(C)Nc1ncc(C(=O)N[C@H]2C3CC4CC2C[C@@](O)(C4)C3)c([C@@H]2CCCO2)n1 [Example 179, N-[(2r,5s)-5-hydroxyadamantan-2-yl]-4-[(2S)-oxolan-2-yl]-2-(propan-2-ylamino)pyrimidine-5-carboxamide]	95.1
O=C(N[C@H]1C2CC3CC1C[C@@](O)(C3)C2)c1cnc(NC2CC2)nc1[C@@H]1CCCO1 [Example 180, 2-(cyclopropylamino)-N-[(2r,5s)-5-hydroxyadamantan-2-yl]-4-[(2S)-oxolan-2-yl]pyrimidine-5-carboxamide]	98.8
CC(C)Oc1ncc(C(=O)N[C@H]2C3CC4CC2C[C@@](O)(C4)C3)c([C@@H]2CCCO2)n1 [Example 181]	95
Cc1ncc(C(=O)N[C@H]2C3CC4CC2C[C@@](O)(C4)C3)c(C2CCC(F)(F)C2)n1 (some centres unmarked) [Example 184, 4-(3,3-Difluorocyclopentyl)-N-[(2r,5s)-5-hydroxyadamantan-2-yl]-2-methylpyrimidine-5-carboxamide]	108
COc1ncc(C(=O)NC2C3CC4CC2CC(O)(C4)C3)c(C2(C)CC2)n1 (centres unmarked) [Example 187, N-[(2r,5 s)-5-hydroxyadamantan-2-yl]-2-methoxy-4-(1-methylcyclopropyl)pyrimidine-5-carboxamide]	99
Cc1ncc(C(=O)N[C@H]2C3CC4CC2C[C@@](O)(C4)C3)c(-c2ccccc2Cl)n1 [Example 189, 4-(2-Chlorophenyl)-N-[(2r,5s)-5-hydroxyadamantan-2-yl]-2-methylpyrimidine-5-carboxamide]	95.5

Other lines, results leading:

inhibition at 30 µM [%]	Structure (SMILES)
102	Cc1ncc(C(=O)N[C@H]2C3CC4CC2C[C@@](O)(C4)C3)c(CC(C)(C)C)n1 [Example 193, 4-(2,2-Dimethylpropyl)-N-[(2r,5s)-5-hydroxyadamantan-2-yl]-2-methylpyrimidine-5-carboxamide]
103	CSc1ncc(C(=O)N[C@H]2C3CC4CC2C[C@@](O)(C4)C3)c(C2CCCCC2)n1 [Example 195, 4-Cyclohexyl-N-[(2r,5 s)-5-hydroxyadamantan-2-yl]-2-(methylthio)pyrimidine-5-carboxamide]
99.8	O=C(N[C@H]1C2CC3CC1C[C@@](O)(C3)C2)c1cnc(N2CCSCC2)nc1C1CCCCC1 [Example 196, 4-Cyclohexyl-N-[(2r,5 s)-5-hydroxyadamantan-2-yl]-2-thiomorpholin-4-ylpyrimidine-5-carboxamide]
97.8	O=C(N[C@H]1C2CC3CC1C[C@@](O)(C3)C2)c1cnc(N2CC[S+]([O-])CC2)nc1C1CCCCC1 [Example 197, 4-Cyclohexyl-N-[(2r,5 s)-5-hydroxyadamantan-2-yl]-2-(1-oxidothiomorpholin-4-yl)pyrimidine-5-carboxamide]
94	O=C(N[C@H]1C2CC3CC1C[C@@](O)(C3)C2)c1cnc(N2CCS(=O)(=O)CC2)nc1C1CCCCC1 [Example 198, 4-Cyclohexyl-2-(1,1-dioxidothiomorpholin-4-yl)-N-[(2r,5s)-5-hydroxyadamantan-2-yl]pyrimidine-5-carboxamide]
96.8	CN(C)c1ncc(C(=O)N[C@H]2C3CC4CC2C[C@@](O)(C4)C3)c(N(C)C)n1 [Example 199, 2,4-bis(dimethylamino)-N-[(2r,5s)-5-hydroxyadamantan-2-yl]pyrimidine-5-carboxamide]
52.8	O=C(N[C@H]1C2CC3CC1C[C@@](O)(C3)C2)c1cnc(N2CC(F)(F)C2)nc1N1CC(F)(F)C1 [Example 200, 2,4-bis(3,3-difluoroazetidin-1-yl)-N-[(2r,5s)-5-hydroxyadamantan-2-yl]pyrimidine-5-carboxamide]
95	O=C(N[C@H]1C2CC3CC1C[C@@](O)(C3)C2)c1cnc(N2CCC2)nc1N1CCC1 [Example 201, 2,4-bis(azetidin-1-yl)-N-[(2r,5s)-5-hydroxyadamantan-2-yl]pyrimidine-5-carboxamide]
102	Cc1ncc(C(=O)N[C@H]2C3CC4CC2C[C@@](O)(C4)C3)c(OC(C)C)n1 [Example 202, N-[(2r,5s)-5-hydroxyadamantan-2-yl]-2-methyl-4-propan-2-yloxypyrimidine-5-carboxamide]
98.6	Cc1ncc(C(=O)N[C@H]2C3CC4CC2C[C@@](O)(C4)C3)c(OC2CCC2)n1 [Example 203, 4-Cyclobutyloxy-N-[(2r,5 s)-5-hydroxyadamantan-2-yl]-2-methylpyrimidine-5-carboxamide]
106	Cc1ncc(C(=O)N[C@H]2C3CC4CC2C[C@@](O)(C4)C3)c(OC2CCCC2)n1 [Example 204, 4-Cyclopentyloxy-N-[(2r,5s)-5-hydroxyadamantan-2-yl]-2-methylpyrimidine-5-carboxamide]
102	COc1nc(N2C[C@@H](C)O[C@@H](C)C2)ncc1C(=O)N[C@H]1C2CC3CC1C[C@@](O)(C3)C2 [Example 205, 2-[(2R,6S)-2,6-Dimethylmorpholin-4-yl]-N-[(2r,5 s)-5-hydroxytricyclo[3.3.1.13.7]dec-2-yl]-4-methoxypyrimidine-5-carboxamide]
105	COc1nc(NC2CC2)ncc1C(=O)N[C@H]1C2CC3CC1C[C@@](O)(C3)C2 [Example 206, 2-(cyclopropylamino)-N-[(2r,5s)-5-hydroxytricyclo[3.3.1.13,7]dec-2-yl]-4-methoxypyrimidine-5-carboxamide]
93	COc1nc(NC2CCC2)ncc1C(=O)N[C@H]1C2CC3CC1C[C@@](O)(C3)C2 [Example 207, 2-(cyclobutylamino)-N-[(2r,5s)-5-hydroxytricyclo[3.3.1.13,7]dec-2-yl]-4-methoxypyrimidine-5-carboxamide]
102	COc1nc(OC2CCC2)ncc1C(=O)N[C@H]1C2CC3CC1C[C@@](O)(C3)C2 [Example 208, 2-(cyclobutyloxy)-N-[(2r,5s)-5-hydroxytricyclo[3.3.1.13,7]dec-2-yl]-4-methoxypyrimidine-5-carboxamide]
99.4	CCOc1nc(N2C[C@@H](C)O[C@@H](C)C2)ncc1C(=O)N[C@H]1C2CC3CC1C[C@@](O)(C3)C2 [Example 209, 2-[(2S,6R)-2,6-dimethylmorpholin-4-yl]-4-ethoxy-N-[(2r,5s)-5-hydroxyadamantan-2-yl]pyrimidine-5-carboxamide]
97.2	CCOc1nc(NC2CC2)ncc1C(=O)N[C@H]1C2CC3CC1C[C@@](O)(C3)C2 [Example 210, 2-(cyclopropylamino)-4-ethoxy-N-[(2r,5s)-5-hydroxytricyclo[3.3.1.13,7]dec-2-yl]pyrimidine-5-carboxamide]
98.4	CCOc1nc(NC2COC2)ncc1C(=O)N[C@H]1C2CC3CC1C[C@@](O)(C3)C2 [Example 211, 4-ethoxy-N-[(2r,5s)-5-hydroxytricyclo[3.3.1.13,7]dec-2-yl]-2-(oxetan-3-ylamino)pyrimidine-5-carboxamide]
105	CCOc1nc(NC2CCC2)ncc1C(=O)N[C@H]1C2CC3CC1C[C@@](O)(C3)C2 [Example 212, 2-(cyclobutylamino)-4-ethoxy-N-[(2r,5s)-5-hydroxytricyclo[3.3.1.13,7]dec-2-yl]pyrimidine-5-carboxamide]
